In patent US12116363B2, “Combinations for immune-modulation in cancer treatment” (SENHWA BIOSCIENCES, INC., priority 2018, dated 2024):

Assays:
4T1 breast cancer cells = assay: Tumor growth inhibition in immune-competent syngeneic mouse model 4T1; type: in vivo, Balb/C mice; conditions: 14 day; CX-4945 75 mg/kg oral BID Day 0-13; cisplatin 6 mg/kg i.p. QW Day 0 and 7
Method: Efficacy studies of tumor growth inhibition and T cells activities was conducted in an immune-competent syngeneic mouse models, 4T1, that is known to be resistant to the treatment of immune checkpoint inhibitors such as anti-PD1, anti-PD-L1, and anti-CTLA4. The resistance to these antagonists that modulates T cell […] signaling indicate a high immune suppressive tumor microenvironment.
This series of studies were conducted in Balb/C mice that are six to eight weeks old. Breast cancer cells, 4T1, were injected subcutaneously with 3×10^5 cells in 0.1 ml PBS to the right flank of the mice. Mice were randomized for treatment when the mean tumor size reached approximately 80-120 mm^3. Treatment were administered with CX-4945 and/or cisplatin at the doses and schedules described in Table 1. […] Tumors were measured two dimensionally (width×length) with an electronic caliper and tumor volume was calculated with the formula V=(L×W×W)/2, where V is tumor volume, L is tumor length (the longest tumor dimension) and W is tumor width (the longest tumor dimension perpendicular to L). The mice were monitored twice weekly and euthanized when tumor sizes reached approximately 800-1000 mm^3 for flow cytometry analysis.
Anti-tumor activities were measured as % Tumor Growth Inhibition (% TGI) at the time of euthanized. TGI was calculated as % TGI=100×(1−T/C). […]

[1] = test system: Colo-205 colorectal cancer model; assay: Colo-205 colorectal cancer model, gemcitabine and CX-4945; type: in vivo; conditions: Colo-205 model (FIG. 2)
Description: The Colo-205 colorectal cancer model is resistant to each individual agent alone (FIG. 2).

[2] = test system: A2780 ovarian cancer xenografts; assay: A2780 ovarian tumor xenograft model, gemcitabine and CX-4945; type: in vivo; conditions: gemcitabine 60 mg/kg i.v., CX-4945 100 mg/kg oral
[3] = test system: tumor-infiltrating T cells and MDSC in 4T1 tumor microenvironment; assay: Flow cytometry of immune cells in 4T1 tumors; type: in vivo, Balb/C mice; conditions: immune competent mice
Method: The composition of immune cells was analyzed with multi-color flow cytometry (FACS) at days when tumor reaches 800-1000 mm^3. Tumors were treated with dissociation media (Miltenyi, CAT #130-096-730) and resuspend in FACS buffer. T cell infiltration was measured by the investigating the number of T cells in the tumor samples. CD4 T, CD8 T, activated CD4 T, and activated CD8 T cells were identified by cell surface marker as CD45^+CD3^+CD4^+, CD45^+CD3^+CD8^+, CD45^+CD3^+CD4^+CD69^+, and CD45^+CD3^+CD8^+CD69^+, respectively. The absolute count of cells was measured by normalized number of cells with counting beads (eBiosciences CAT #01-1234-42) and the weight of each tumor sample. Absolute count of tumor-infiltrating T cells was calculated by the formula as Absolute count (cells/mg)=[(cell count×eBead Volume)/(eBead count×tumor weight)]×eBead concentration.

Compound | % TGI (4T1 breast cancer cells) | tumor growth [1] | % TGI [2] | Median TTE days [2] | delay in time to endpoint (TTE analysis) [2] | number of MDSC systemically or locally in the tumor microenvironment [3]
N.N.[Cl][Pt][Cl] [Cisplatin, cisplatin, reference compound] | 45% | – | – | – | – | –
Nc1ccn([C@@H]2O[C@H](CO)[C@@H](O)C2(F)F)c(=O)n1 [Gemcitabine, gemcitabine, reference compound] | – | resistant | 68% | 28 days | significant delay in time to endpoint | –
O=C(O)c1ccc2c(c1)nc(Nc1cccc(Cl)c1)c1ccncc12 [CX-4945, silmitasertib] | 18% | resistant | 20% | 18 days | significant delay in time to endpoint | does not decrease
